Residues, ends and D or L forms follow the SMILES beside them.

Common to all, as to format: biochemical
For experiment [1], the target named is T1, 20S mouse liver proteasome (Mus musculus, UniProt O55234+P70195+Q60692).
T1 construct: gene Psmb5; native 20S core particle purified from mouse liver; alpha7beta7beta7alpha7; with Proteasome subunit beta type-1; Proteasome subunit beta type-2; Proteasome subunit beta type-3; Proteasome subunit beta type-4; Proteasome subunit alpha type-1; Proteasome subunit alpha type-2; Proteasome subunit alpha type-3; Proteasome subunit alpha type-4; Proteasome subunit alpha type-5; Proteasome subunit alpha type-6; Proteasome subunit alpha type-7
The experiment can be described thus: fluorogenic peptide hydrolysis, initial velocities, ABC-SMC fit of Michaelis-Menten and substrate-inhibition models. As to conditions: TEAD buffer pH 7.2, 37 °C, authors state the models fit poorly.

Experiment [2] has as its target T2, human 20S s-proteasome (T2 proteasome) (Homo sapiens, UniProt P28072+P28074+Q99436).
T2 construct: gene PSMB5; native 20S core particle purified from T2 cells; alpha7beta7beta7alpha7; with Proteasome subunit beta type-1; Proteasome subunit beta type-2; Proteasome subunit beta type-3; Proteasome subunit beta type-4; Proteasome subunit alpha type-1; Proteasome subunit alpha type-2; Proteasome subunit alpha type-3; Proteasome subunit alpha type-4; Proteasome subunit alpha type-5; Proteasome subunit alpha type-6; Proteasome subunit alpha type-7
The experiment can be described thus: fluorogenic peptide hydrolysis time courses, Bayesian fit of compartment model. The following applies: TEAD buffer pH 7.2, 37 °C, 20-640 μM substrate, model-inferred active site affinity.

The target of experiment [3] is T1, 20S mouse liver proteasome. The experiment can be described thus: Bz-VGR-MCA hydrolysis with and without peptide. The following applies: activator; allosteric non-catalytic modifier site; terminal groups of LLVY not told; pH 7.2, 37 °C.

As for `Cc1cc(=O)oc2cc(NC(=O)[C@H](CCC(=O)O)NC(=O)[C@H](CC(C)C)NC(=O)[C@H](CC(C)C)NC(=O)OCc3ccccc3)ccc12` [Z-LLE-MCA] (HELM PEPTIDE1{[O=C(OCc1ccccc1)[*:2]].L.L.E.[Cc1cc(=O)oc2cc(N[*:1])ccc12]}$$$$V2.0), the KM result in experiment [1] (site mainly beta1/beta1i) is “The substrates Suc-LLVY-MCA, Bz-VGR-MCA and Z-LLE-MCA were hydrolysed by mouse proteasome”. The KaS entry in experiment [2] (site mainly beta1) was “for i-proteasomes we observe lower affinity to the active site (KaS)”.

`Cc1cc(=O)oc2cc(NC(=O)[C@H](Cc3ccc(O)cc3)NC(=O)[C@@H](NC(=O)[C@H](CC(C)C)NC(=O)[C@H](CC(C)C)NC(=O)CCC(=O)O)C(C)C)ccc12` [Suc-LLVY-MCA] (HELM PEPTIDE1{[O=C(O)CCC(=O)[*:2]].L.L.V.Y.[Cc1cc(=O)oc2cc(N[*:1])ccc12]}$$$$V2.0): the KM result in experiment [1] (site mainly beta5/beta5i) was “Scatterplot of the kinetic parameters vmax and KM from the inferred posterior parameter distributions”. For the same molecule, the KaS entry in experiment [2] (site mainly beta5) was “we observe a higher active site affinity (KaS) with a lower Hill coefficient (na)”.

For the molecule `Cc1cc(=O)oc2cc(NC(=O)[C@H](Cc3ccc(O)cc3)NC(=O)[C@@H](NC(=O)[C@H](CC(C)C)NC(=O)[C@H](CC(C)C)NC(=O)CCC(=O)O)C(C)C)ccc12` [LLVY peptide] (HELM PEPTIDE1{[O=C(O)CCC(=O)[*:2]].L.L.V.Y.[Cc1cc(=O)oc2cc(N[*:1])ccc12]}$$$$V2.0), the “Bz-VGR-MCA hydrolysis with and without peptide” value in experiment [3] is recorded as “degradation rate of the substrate Bz-VGR-MCA increases in the presence of the peptide LLVY”.
